Literature values in EP0424512B1, “ANTIMETASTATIC PEPTIDES” (SRI INTERNATIONAL, priority 1989, dated 1990).

System: human fibrosarcoma HT-1080 and Chinese hamster ovary cells
Conditions: relative to laminin

Q: Which “activity of laminin in cell attachment on a molar basis” value does the source give for “CDPGYIGSR [nine amino acid peptide from domain III of laminin B₁ chain]” here?
A: The value was 0.5-1%.
